Active and inactive are the calls of the source. No cut-off for these calls is given here.
Columns and labels:
[1] = target: Histone deacetylase 3 (Homo sapiens, UniProt O15379); experiment: Inhibition of recombinant HDAC3 (unknown origin) using Boc-Lys(acetyl)-AMC as substrate preincubated for 1 hr followed by substrate addition and measured after 2 hrs by fluorescence based micro plate reader analysis
[2] = target: Protein deacetylase HDAC6 (Homo sapiens, UniProt Q9UBN7); experiment: Inhibition of recombinant full length human HDAC6 using Boc-Lys(acetyl)-AMC as substrate preincubated for 1 hr followed by substrate addition and measured after 2 hrs by fluorescence based micro plate reader analysis
[3] = target: Histone deacetylase 7 (Homo sapiens, UniProt Q8WUI4); experiment: Inhibition of recombinant HDAC7 (unknown origin) using Boc-Lys(trifluoroacetyl)-AMC as substrate preincubated for 1 hr followed by substrate addition and measured after 2 hrs by fluorescence based micro plate reader analysis
[4] = target: Histone deacetylase 8 (Homo sapiens, UniProt Q9BY41); experiment: Inhibition of recombinant HDAC8 (unknown origin) using Boc-Lys(trifluoroacetyl)-AMC as substrate preincubated for 1 hr followed by substrate addition and measured after 2 hrs by fluorescence based micro plate reader analysis
[5] = target: Histone deacetylase 9 (Homo sapiens, UniProt Q9UKV0); experiment: Inhibition of recombinant HDAC9 (unknown origin) using Boc-Lys(trifluoroacetyl)-AMC as substrate preincubated for 1 hr followed by substrate addition and measured after 2 hrs by fluorescence based micro plate reader analysis
[6] = system: B16-F10; experiment: Inhibition of cell migration in mouse B16-F10 cells incubated for 24 to 48 hrs by crystal violet staining based microscopic analysis; format: functional; conditions: dose 5-20 µM, time 24-48 hrs
[7] = system: B16-F10; experiment: Inhibition of cell migration in mouse B16-F10 cells assessed as wound area at 20 uM incubated for 24 hrs by wound healing assay (reference value: 50.36 +/- 1.68 %); format: functional; design: scale not given: the % may be the effect or the level left
[8] = system: B16-F10; experiment: Induction of apoptosis in mouse B16-F10 cells assessed as increase in apoptotic cells at 10 uM incubated for 48 hrs by Annexin V-FITC/PI staining based flow cytometric analysis relative to control; format: functional
[9] = target: Programmed cell death 1 ligand 1 (Mus musculus) (UniProt Q9EP73); experiment: Induction of PD-L1 degradation in mouse B16-F10 cells assessed as decrease in PD-L1 protein level at 5 uM preincubated with bafilomycin A1 for 4 hrs followed by compound addition and measured after 24 hrs by Western blot analysis; format: cell-based
[10] = system: 4T1; experiment: Induction of DNA damage in mouse 4T1 cells assessed as upregulation of nuclear gamma-H2AX expression at 5 uM by DAPI staining based immunofluorescence analysis; format: functional, cell-based
[11] = MRT (0 to infinity) in male Sprague-Dawley rat at 2 mg/kg, iv measured after 12 hrs by LC-MS/MS analysis; format: ADME, organism-based; conditions: in vivo
[12] = Clast in male Sprague-Dawley rat at 2 mg/kg, iv measured after 12 hrs by LC-MS/MS analysis; format: ADME, organism-based; conditions: in vivo, read-out: Clast
[13] = Tmax in male Sprague-Dawley rat at 2 mg/kg, iv measured after 12 hrs by LC-MS/MS analysis; format: ADME, organism-based; conditions: in vivo
[14] = MRT (0 to infinity) in male Sprague-Dawley rat at 20 mg/kg, po measured after 12 hrs by LC-MS/MS analysis; format: ADME, organism-based; conditions: in vivo
[15] = Clast in male Sprague-Dawley rat at 20 mg/kg, po measured after 12 hrs by LC-MS/MS analysis; format: ADME, organism-based; conditions: in vivo, read-out: Clast
[16] = Tmax in male Sprague-Dawley rat at 20 mg/kg, po measured after 12 hrs by LC-MS/MS analysis; format: ADME, organism-based; conditions: in vivo
[17] = Toxicity in male C57BL/6 mouse implanted with mouse B16-F10 cells assessed as histopathological changes in liver at 50 mg/kg, po administered once daily for 14 days by HandE staining based microscopic analysis; format: organism-based; conditions: in vivo, 336 h, time 14 day
[18] = system: Mus musculus; experiment: Immunomodulatory activity in male C57BL/6 mouse model implanted with mouse B16-F10 cells assessed as increase in CD3+ CD4+ T cells in tumor at 50 mg/kg, po administered once daily for 14 days by flow cytometric analysis (reference value: 3.1 %); format: functional; conditions: time 14 day
[19] = system: Mus musculus; experiment: Immunomodulatory activity in male C57BL/6 mouse model implanted with mouse B16-F10 cells assessed as increase in CD3+ CD8+ T cells in tumor at 50 mg/kg, po administered once daily for 14 days by flow cytometric analysis (reference value: 3.2 %); format: functional; conditions: time 14 day
[20] = target: T1, Histone deacetylase 3 (Mus musculus) (UniProt O88895); experiment: In vivo inhibition of HDAC3 in male C57BL/6 mouse model implanted with mouse B16-F10 cells assessed as increase in acetylated histone H3 level in tumor at 50 mg/kg, po administered once daily via gavage for 14 days by DAPI staining based immunofluorescence analysis; format: functional, organism-based; conditions: time 14.0 day
T1 sequence (whole entry): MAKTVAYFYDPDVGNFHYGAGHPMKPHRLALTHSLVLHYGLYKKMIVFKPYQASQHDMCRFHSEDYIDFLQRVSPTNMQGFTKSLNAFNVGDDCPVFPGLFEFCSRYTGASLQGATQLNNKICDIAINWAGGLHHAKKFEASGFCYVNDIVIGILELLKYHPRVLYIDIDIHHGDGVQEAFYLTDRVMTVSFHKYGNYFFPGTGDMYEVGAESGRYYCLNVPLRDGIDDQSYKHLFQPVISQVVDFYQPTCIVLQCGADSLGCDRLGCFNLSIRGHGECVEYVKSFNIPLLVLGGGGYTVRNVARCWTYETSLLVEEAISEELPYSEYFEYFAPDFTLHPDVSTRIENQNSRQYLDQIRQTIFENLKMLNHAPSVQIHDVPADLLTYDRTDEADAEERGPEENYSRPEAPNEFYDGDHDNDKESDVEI

[21] = system: Mus musculus; experiment: In vivo induction of PD-L1 degradation in male C57BL/6 mouse model implanted with mouse B16-F10 cells assessed as decrease in PD-L1 protein expression in tumor at 50 mg/kg, po administered once daily via gavage for 14 days by DAPI staining based immunofluorescence analysis; format: functional, organism-based; conditions: time 14.0 day
[22] = system: 4T1; experiment: Antitumor activity against mouse 4T1 cells implanted in female BALB/c mouse model assessed as induction of DNA damage by measuring increase in gamma-H2AX expression in tumor administrated orally as once daily dose via gavage for 14 days by Western blot analysis; format: functional, cell-based; conditions: route po, time 14.0 day
[23] = system: 4T1; experiment: Antitumor activity against mouse 4T1 cells implanted in female BALB/c mouse model assessed as decrease in PAPR1 expression in tumor administrated orally as once daily dose via gavage for 14 days by DAPI staining based immunofluorescence analysis; format: functional, cell-based; conditions: route po, time 14.0 day
[24] = system: 4T1; experiment: Antitumor activity against mouse 4T1 cells implanted in female BALB/c mouse model assessed as induction of DNA damage by measuring increase in gamma-H2AX expression in tumor administrated orally as once daily dose via gavage for 14 days by DAPI staining based immunofluorescence analysis; format: functional, cell-based; conditions: route po, time 14.0 day
[25] = system: 4T1; experiment: Antitumor activity against mouse 4T1 cells implanted in female BALB/c mouse model assessed as induction of DNA damage by measuring increase in gamma-H2AX fluorescence intensity in tumor co-administrated orally with olaparib as once daily dose via gavage for 14 days by DAPI staining based immunofluorescence analysis; format: functional, cell-based; conditions: route po, time 14.0 day
[26] = target: Histone deacetylase 1 (Homo sapiens, UniProt Q13547); conditions: dose 500.0 nM, time 3.0 hrs
Chain of Histone deacetylase 1 (Q13547 whole entry): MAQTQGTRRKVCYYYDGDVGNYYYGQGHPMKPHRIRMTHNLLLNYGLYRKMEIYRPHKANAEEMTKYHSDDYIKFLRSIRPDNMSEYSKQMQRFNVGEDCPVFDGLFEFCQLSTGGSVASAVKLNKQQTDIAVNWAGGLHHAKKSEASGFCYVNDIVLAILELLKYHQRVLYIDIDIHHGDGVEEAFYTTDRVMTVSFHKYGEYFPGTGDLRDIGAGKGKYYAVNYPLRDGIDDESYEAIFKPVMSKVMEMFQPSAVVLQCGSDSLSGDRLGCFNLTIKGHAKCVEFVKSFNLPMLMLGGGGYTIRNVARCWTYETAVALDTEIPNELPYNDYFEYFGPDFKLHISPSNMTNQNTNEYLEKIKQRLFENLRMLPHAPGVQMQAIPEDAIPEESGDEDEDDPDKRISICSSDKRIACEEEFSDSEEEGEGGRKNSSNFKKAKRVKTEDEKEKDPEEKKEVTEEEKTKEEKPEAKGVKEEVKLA

Chain of Histone deacetylase 9 (Q9UKV0 whole entry): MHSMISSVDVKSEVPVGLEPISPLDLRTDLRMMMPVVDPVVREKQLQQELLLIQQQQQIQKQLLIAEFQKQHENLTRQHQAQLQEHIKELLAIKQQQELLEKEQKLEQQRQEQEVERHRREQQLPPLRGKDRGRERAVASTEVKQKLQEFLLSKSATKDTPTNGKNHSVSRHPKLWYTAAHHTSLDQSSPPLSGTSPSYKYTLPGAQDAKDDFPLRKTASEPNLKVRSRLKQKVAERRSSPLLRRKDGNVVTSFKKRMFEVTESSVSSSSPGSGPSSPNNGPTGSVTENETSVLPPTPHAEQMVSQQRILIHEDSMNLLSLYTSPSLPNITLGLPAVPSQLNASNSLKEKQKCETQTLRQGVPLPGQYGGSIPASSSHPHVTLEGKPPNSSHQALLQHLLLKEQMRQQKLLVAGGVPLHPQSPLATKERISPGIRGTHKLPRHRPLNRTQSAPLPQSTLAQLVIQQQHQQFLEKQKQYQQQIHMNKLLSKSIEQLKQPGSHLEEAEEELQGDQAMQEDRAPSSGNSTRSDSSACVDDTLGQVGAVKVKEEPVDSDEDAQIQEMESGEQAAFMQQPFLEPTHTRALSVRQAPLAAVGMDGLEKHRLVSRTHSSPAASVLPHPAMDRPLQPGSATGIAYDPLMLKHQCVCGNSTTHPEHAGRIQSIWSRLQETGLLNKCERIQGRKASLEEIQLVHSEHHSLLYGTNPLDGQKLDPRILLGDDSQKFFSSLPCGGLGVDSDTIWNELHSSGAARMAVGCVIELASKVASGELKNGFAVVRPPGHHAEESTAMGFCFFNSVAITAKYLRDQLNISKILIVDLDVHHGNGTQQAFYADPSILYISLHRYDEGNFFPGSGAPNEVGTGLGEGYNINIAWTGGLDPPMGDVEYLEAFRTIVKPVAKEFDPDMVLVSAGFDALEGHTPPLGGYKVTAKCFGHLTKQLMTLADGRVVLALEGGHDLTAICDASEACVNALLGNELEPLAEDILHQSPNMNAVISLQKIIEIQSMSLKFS
Chain of Protein deacetylase HDAC6 (Q9UBN7 whole entry): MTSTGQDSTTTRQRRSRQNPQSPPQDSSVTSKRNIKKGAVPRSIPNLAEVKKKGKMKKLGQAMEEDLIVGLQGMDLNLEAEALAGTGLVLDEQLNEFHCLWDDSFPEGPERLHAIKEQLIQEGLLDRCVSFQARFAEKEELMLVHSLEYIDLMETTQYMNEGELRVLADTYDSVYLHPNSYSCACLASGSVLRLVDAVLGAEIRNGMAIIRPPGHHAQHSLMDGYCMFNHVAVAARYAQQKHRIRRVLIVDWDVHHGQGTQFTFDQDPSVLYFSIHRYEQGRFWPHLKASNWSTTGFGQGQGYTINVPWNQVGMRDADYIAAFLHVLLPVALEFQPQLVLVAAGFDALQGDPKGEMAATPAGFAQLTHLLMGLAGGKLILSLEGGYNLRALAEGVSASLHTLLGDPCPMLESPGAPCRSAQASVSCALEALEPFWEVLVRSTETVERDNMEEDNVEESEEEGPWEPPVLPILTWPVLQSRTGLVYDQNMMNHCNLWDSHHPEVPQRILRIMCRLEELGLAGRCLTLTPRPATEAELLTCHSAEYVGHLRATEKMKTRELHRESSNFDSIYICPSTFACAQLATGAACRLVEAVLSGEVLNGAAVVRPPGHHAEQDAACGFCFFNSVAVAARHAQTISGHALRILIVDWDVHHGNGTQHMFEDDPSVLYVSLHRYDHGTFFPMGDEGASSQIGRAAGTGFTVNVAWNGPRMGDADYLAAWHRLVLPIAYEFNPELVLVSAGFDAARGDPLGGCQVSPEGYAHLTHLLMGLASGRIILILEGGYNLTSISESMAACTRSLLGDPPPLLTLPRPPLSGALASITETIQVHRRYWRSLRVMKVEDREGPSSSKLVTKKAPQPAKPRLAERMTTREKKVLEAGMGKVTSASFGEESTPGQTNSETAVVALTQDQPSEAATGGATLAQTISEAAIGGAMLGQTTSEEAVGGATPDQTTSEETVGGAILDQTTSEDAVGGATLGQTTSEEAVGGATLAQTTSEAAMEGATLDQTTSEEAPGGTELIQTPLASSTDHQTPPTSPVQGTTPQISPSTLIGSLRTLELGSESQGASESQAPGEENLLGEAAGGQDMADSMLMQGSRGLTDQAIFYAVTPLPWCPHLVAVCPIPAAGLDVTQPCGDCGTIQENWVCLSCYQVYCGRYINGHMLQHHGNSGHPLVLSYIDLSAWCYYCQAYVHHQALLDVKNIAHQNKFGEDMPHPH
Chain of Programmed cell death 1 ligand 1 (Mus musculus) (Q9EP73 whole entry): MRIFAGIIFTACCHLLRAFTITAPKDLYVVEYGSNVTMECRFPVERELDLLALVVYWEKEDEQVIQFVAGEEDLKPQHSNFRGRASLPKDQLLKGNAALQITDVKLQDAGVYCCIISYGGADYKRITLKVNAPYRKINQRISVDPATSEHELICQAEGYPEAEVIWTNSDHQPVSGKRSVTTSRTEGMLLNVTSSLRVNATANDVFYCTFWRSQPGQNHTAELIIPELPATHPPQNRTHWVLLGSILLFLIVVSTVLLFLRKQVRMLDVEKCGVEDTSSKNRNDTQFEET
Chain of Histone deacetylase 3 (O15379 whole entry): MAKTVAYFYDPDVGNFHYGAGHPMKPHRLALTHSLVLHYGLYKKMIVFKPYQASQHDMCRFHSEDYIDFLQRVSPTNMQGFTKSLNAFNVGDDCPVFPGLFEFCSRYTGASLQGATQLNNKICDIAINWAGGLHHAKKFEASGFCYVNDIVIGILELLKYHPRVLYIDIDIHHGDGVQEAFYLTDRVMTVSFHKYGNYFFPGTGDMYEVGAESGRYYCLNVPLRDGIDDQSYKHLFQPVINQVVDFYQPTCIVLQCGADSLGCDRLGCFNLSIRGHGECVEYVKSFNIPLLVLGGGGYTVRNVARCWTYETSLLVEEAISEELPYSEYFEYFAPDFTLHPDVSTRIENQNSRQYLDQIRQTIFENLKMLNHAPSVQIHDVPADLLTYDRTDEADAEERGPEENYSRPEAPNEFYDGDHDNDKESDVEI
Chain of Histone deacetylase 8 (Q9BY41 whole entry): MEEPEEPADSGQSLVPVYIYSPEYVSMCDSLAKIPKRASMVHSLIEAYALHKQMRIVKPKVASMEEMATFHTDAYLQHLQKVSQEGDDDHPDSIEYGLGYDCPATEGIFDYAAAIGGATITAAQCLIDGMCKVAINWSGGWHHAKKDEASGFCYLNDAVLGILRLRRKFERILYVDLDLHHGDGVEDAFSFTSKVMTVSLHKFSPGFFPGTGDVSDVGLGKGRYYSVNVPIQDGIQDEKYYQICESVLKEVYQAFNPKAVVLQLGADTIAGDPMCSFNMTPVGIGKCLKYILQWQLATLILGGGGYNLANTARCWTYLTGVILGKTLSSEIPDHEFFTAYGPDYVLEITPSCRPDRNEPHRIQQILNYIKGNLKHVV
Chain of Histone deacetylase 7 (Q8WUI4 whole entry): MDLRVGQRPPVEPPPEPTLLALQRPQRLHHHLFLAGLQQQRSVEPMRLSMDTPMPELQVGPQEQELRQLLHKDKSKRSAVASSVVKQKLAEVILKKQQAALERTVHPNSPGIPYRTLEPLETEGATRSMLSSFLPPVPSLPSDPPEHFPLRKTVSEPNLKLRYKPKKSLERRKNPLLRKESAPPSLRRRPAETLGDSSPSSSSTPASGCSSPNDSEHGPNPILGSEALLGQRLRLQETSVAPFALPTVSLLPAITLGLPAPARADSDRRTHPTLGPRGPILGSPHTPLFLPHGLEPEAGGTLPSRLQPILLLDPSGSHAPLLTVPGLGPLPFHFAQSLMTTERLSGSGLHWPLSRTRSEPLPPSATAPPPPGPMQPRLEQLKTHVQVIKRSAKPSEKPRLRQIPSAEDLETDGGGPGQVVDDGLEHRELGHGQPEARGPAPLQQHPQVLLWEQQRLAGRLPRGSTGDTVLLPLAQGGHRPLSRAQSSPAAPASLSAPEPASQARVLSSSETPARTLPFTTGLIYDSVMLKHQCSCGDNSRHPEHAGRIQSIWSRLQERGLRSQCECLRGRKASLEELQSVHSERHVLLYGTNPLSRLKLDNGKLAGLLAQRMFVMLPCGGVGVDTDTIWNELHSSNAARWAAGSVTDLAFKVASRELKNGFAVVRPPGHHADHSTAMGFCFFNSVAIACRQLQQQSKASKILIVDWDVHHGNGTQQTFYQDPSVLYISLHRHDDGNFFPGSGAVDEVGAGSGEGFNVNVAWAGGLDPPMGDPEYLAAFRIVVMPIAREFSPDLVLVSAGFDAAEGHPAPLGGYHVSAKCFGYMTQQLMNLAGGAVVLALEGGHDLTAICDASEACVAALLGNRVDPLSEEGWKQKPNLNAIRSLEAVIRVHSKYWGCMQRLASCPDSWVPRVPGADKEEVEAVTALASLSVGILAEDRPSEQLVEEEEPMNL

CCCNNC(=O)c1ccc(Cn2c3ccccc3c3c(-c4ccccn4)nc4ccccc4c32)cc1
IC50 [1]: 0.042 µM
IC50 [2]: 8.2 µM
IC50 [3]: > 10 µM
IC50 [4]: > 10 µM
IC50 [5]: > 10 µM
inhibition [6]: Dose-dependent-effect
Activity [7]: 5.9%
Activity [8]: 44.7%
Activity [9]: Not active; Compound Degrades Pd-L1 Through Lysosomal Pathway
Activity [10]: Active
MRT inf [11]: 44.5 min
concentration at 12 h [12]: 0.475 ng/mL
Tmax [13]: 4.98 min
MRT inf [14]: 294 min
concentration at 12 h [15]: 106 ng/mL
Tmax [16]: 30 min
Activity [17]: Non-toxic
Activity [18]: 22%
Activity [19]: 25%
inhibition [20]: Active
Activity [21]: Active
Activity [22]: Active
Activity [23]: Active; Comparable To The Effect Of Olaparib
Activity [24]: Active; Comparable To The Effect Of Olaparib
Activity [25]: Active
inhibition [26]: 14%
